Measurements: the supplement of paper PMC4932681
Structures can show the parent of a compound that is named as a salt.

Columns and labels:
Experiment in all cases: viability inhibition at highest dose (% inhibition); higher = more growth inhibition
ZR-75-1 Tam2 = conditions: 4-OH-tamoxifen in medium 1 µM; 72 h
Protocol: (§1)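 Percent inhibition of viability (CellTiter-Glo, 72 h) at the highest tested concentration (D5), normalised to DMSO (0%) and 100 µM benzethonium chloride (100%). Resistant lines and the 'in 1µM tamoxifen' arms were tested in 1 µM 4-OH-tamoxifen.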

T-47D = conditions: 72 h
Protocol: as §1

ZR-75-1 Tam1 = conditions: 4-OH-tamoxifen in medium 1 µM; 72 h
Protocol: as §1

BT-474 Tam2 = conditions: 4-OH-tamoxifen in medium 1 µM; 72 h
Protocol: as §1

MCF-7 = conditions: 72 h
Protocol: as §1

MCF-7 Tam1 = conditions: 4-OH-tamoxifen in medium 1 µM; 72 h
Protocol: as §1

ZR-75-1 = conditions: 72 h
Protocol: as §1

BT-474 = conditions: 72 h
Protocol: as §1

BT-474 Tam1 = conditions: 4-OH-tamoxifen in medium 1 µM; 72 h
Protocol: as §1

T-47D Tam2 = conditions: 4-OH-tamoxifen in medium 1 µM; 72 h
Protocol: as §1

T-47D Tam1 = conditions: 4-OH-tamoxifen in medium 1 µM; 72 h
Protocol: as §1

SMILES | viability inhibition at highest dose (ZR-75-1 Tam2) | viability inhibition at highest dose (T-47D; 4-OH-tamoxifen in medium 0 µM) | viability inhibition at highest dose (T-47D; 4-OH-tamoxifen in medium 1 µM) | viability inhibition at highest dose (ZR-75-1 Tam1) | viability inhibition at highest dose (BT-474 Tam2) | viability inhibition at highest dose (MCF-7; 4-OH-tamoxifen in medium 0 µM) | viability inhibition at highest dose (MCF-7; 4-OH-tamoxifen in medium 1 µM) | viability inhibition at highest dose (MCF-7 Tam1) | viability inhibition at highest dose (ZR-75-1; 4-OH-tamoxifen in medium 0 µM) | viability inhibition at highest dose (ZR-75-1; 4-OH-tamoxifen in medium 1 µM) | viability inhibition at highest dose (BT-474; 4-OH-tamoxifen in medium 0 µM) | viability inhibition at highest dose (BT-474; 4-OH-tamoxifen in medium 1 µM) | viability inhibition at highest dose (BT-474 Tam1) | viability inhibition at highest dose (T-47D Tam2) | viability inhibition at highest dose (T-47D Tam1)
Cc1ccc(-c2cc(C(F)(F)F)nn2-c2ccc(S(N)(=O)=O)cc2)cc1 [Celecoxib] (drug 10000 nM) | -10.3 | -3.21 | 5.57 | 4.71 | 4.93 | 15.2 | 5.23 | 4.31 | -12 | 11.6 | -0.849 | 1.11 | 12.6 | 18.3 | 2.27
C1CN1c1nc(N2CC2)nc(N2CC2)n1 [Triethylenemelamine] (drug 10000 nM) | -10 | -11.6 | -10.3 | -3.65 | -2.97 | 1.71 | -13.7 | -10.7 | -18.1 | -2.81 | -11.5 | -8.95 | 7.12 | 13 | 19.6
O=C(Nc1ccncc1)C(=O)c1cn(Cc2ccc(Cl)cc2)c2ccccc12 [Indibulin] (drug 10000 nM) | 11.1 | 2.62 | 12 | 10.6 | 8.07 | 36.4 | 33.7 | -9.03 | 9.44 | -3.66 | 7.67 | 28.2 | 7.16 | 4.46 | 13
COC(=O)C[C@](O)(CCCC(C)(C)O)C(=O)O[C@@H]1C(OC)=C[C@]23CCCN2CCc2cc4c(cc2[C@H]13)OCO4 [Omacetaxine (Homoharringtonine)] (drug 10000 nM) | 76.1 | 81.1 | 55.6 | 53.7 | 73.4 | 82.1 | 75.5 | 62.7 | 54.1 | 52.2 | 19.5 | 75 | 82.1 | 71.4 | 74.5
O=S(=O)(c1cccc2cnccc12)N1CCCNCC1 [Fasudil  (HA-1077)] (drug 50000 nM) | -8.22 | -20.9 | -12.4 | 3.21 | -12.9 | 21 | -0.98 | 7.1 | -7.56 | -6.81 | -7 | -17.4 | -5.55 | 20.1 | 2.59
O=P1(N(CCCl)CCCl)NCCCO1 (stereo not given) [Clafen (Cyclophosphamide, Endoxan)] (drug 40000 nM) | -3.35 | -14 | -13.7 | 7.03 | 2.47 | -6.33 | 11 | 1.76 | -3.78 | -1.89 | -4.59 | -11.3 | -0.665 | 11.9 | -3.65
CN(C)C[C@@H]1CCn2cc(c3ccccc32)C2=C(C(=O)NC2=O)c2cn(c3ccccc23)CCO1 (drug 10000 nM) | 47.1 | 72.1 | 97.4 | 37.7 | 98 | 99.8 | 69.5 | 22.1 | 45.5 | 70.9 | 76 | 101 | 100 | 70.2 | 71.2
CC[C@@]1(O)C(=O)OCc2c1cc1n(c2=O)Cc2cc3c(CN(C)C)c(O)ccc3nc2-1 [Topotecan] (drug 1000 nM) | 48.3 | 52.2 | 5.37 | 40.6 | 0.0411 | 11 | 23.7 | -1.83 | 49.4 | 38.6 | -20.8 | -23.9 | 4.54 | 27.9 | 46
O=C(c1cc(Cc2n[nH]c(=O)c3ccccc23)ccc1F)N1CCN(C(=O)C2CC2)CC1 [Olaparib] (drug 10000 nM) | 6.09 | 10.8 | 0.545 | 9.56 | 6.64 | -12.5 | 18 | -1.72 | 2.83 | -2.23 | -3.98 | -18.1 | 11.7 | 13.8 | 3.42
Cc1ccc(C(=O)N(CCCN)[C@@H](c2oc3cc(Cl)ccc3c(=O)c2Cc2ccccc2)C(C)C)cc1 (drug 100 nM) | -13.3 | -16.7 | -5.16 | -7.2 | -0.695 | 5.45 | 19.8 | -9.67 | -10.8 | -9.18 | -10.2 | -22.8 | -6.24 | 7.13 | -2.81
Cc1ccc(F)c(NC(=O)Nc2ccc(-c3cccc4[nH]nc(N)c34)cc2)c1 [Linifanib (ABT-869)] (drug 1000 nM) | -0.131 | -7.82 | -2.26 | -5.49 | -11.2 | -7.63 | 4.89 | -5.44 | -3.03 | -10.3 | -5.83 | -19 | -15 | -13.7 | 5.32
O=C(CCBr)N1CCN(C(=O)CCBr)CC1 [Pipobroman] (drug 10000 nM) | -10.5 | -14.7 | -5.88 | 1.68 | -8.7 | -15.2 | 9.48 | -9.06 | -15 | -9.45 | -11.7 | -7.15 | -12.7 | 9.55 | 1.06
NC(=O)Nc1cc(-c2cccc(F)c2)sc1C(=O)N[C@H]1CCCNC1 [AZD7762] (drug 1000 nM) | -5.84 | -14.8 | 13.8 | -10.3 | -14.7 | 35.5 | 5.25 | 2.31 | 10.5 | -0.00544 | -6.57 | -6.16 | -13.6 | 29.3 | 18.2
Oc1ccc2c(c1)CC[C@H](c1ccccc1)[C@@H]2c1ccc(OCCN2CCCC2)cc1 [Lasofoxifene] (drug 1000 nM) | 2.17 | -21.7 | -10.6 | 3.54 | 12.4 | 3.8 | 25 | -2.47 | -9.97 | -2.22 | -9.14 | 24.2 | 34.3 | 5.06 | 2.67
CC(C)C[C@H](NC(=O)[C@H](CCc1ccccc1)NC(=O)CN1CCOCC1)C(=O)N[C@@H](Cc1ccccc1)C(=O)N[C@@H](CC(C)C)C(=O)[C@@]1(C)CO1 [Carfilzomib] (drug 1000 nM) | 75.9 | 86.2 | 91.1 | 80.2 | 93.7 | 91.8 | 96.5 | 92.7 | 76.9 | 85.7 | 79.9 | 96.2 | 97.8 | 96.8 | 96.3
CS(=O)(=O)CCNCc1ccc(-c2ccc3ncnc(Nc4ccc(OCc5cccc(F)c5)c(Cl)c4)c3c2)o1 [Lapatinib] (drug 1000 nM) | -5.73 | 5.41 | -0.526 | 5.35 | 96.2 | 6.77 | 17.5 | 0.111 | 0.392 | -2.73 | 76.6 | 95.8 | 96.8 | 16.8 | 14.6
COc1cccc2c1C(=O)c1c(O)c3c(c(O)c1C2=O)C[C@@](O)(C(C)=O)C[C@@H]3O[C@H]1C[C@H](N)[C@H](O)[C@H](C)O1 [Daunorubicin] (drug 1000 nM) | 70.7 | 72.4 | 73.5 | 64.3 | 32.7 | 78.9 | 87.8 | 32.2 | 63.6 | 55.3 | 53.8 | 95.4 | 72.8 | 68.4 | 67.9
CNC(=O)c1cc(Oc2ccc(NC(=O)Nc3ccc(Cl)c(C(F)(F)F)c3)c(F)c2)ccn1 [Regorafenib (BAY 73-4506)] (drug 10000 nM) | 32.6 | 29.1 | 18.2 | 22.4 | 76.2 | 52.7 | 33.5 | 18.1 | 17 | 18.3 | 38 | 73 | 93.1 | 16.3 | 31.3
CNNCc1ccc(C(=O)NC(C)C)cc1 [Procarbazine] (drug 10000 nM) | -4.74 | -8.64 | 3.29 | 5.75 | -9.69 | -15.7 | -26.1 | -2.96 | -8.18 | 1.35 | -6.73 | -0.151 | 3.72 | 18.8 | 0.22
NC(=O)NO [Hydroxyurea] (drug 100000 nM) | -8.32 | -10.4 | 7.44 | 2.07 | 5.16 | -13.2 | 12.6 | 1.25 | -5.61 | 3.11 | -6.12 | 14.5 | 6.52 | 1.81 | -2.99
CCN(CC)CCNC(=O)c1c(C)[nH]c(/C=C2\C(=O)Nc3ccc(F)cc32)c1C (drug 1000 nM) | 2.39 | -6.3 | 13.4 | -5.76 | 1.68 | -3.88 | -9.09 | 7.78 | 5.31 | -5.7 | -3.86 | 33.8 | 13.8 | 3.79 | 6.06
CN(C)/N=N/c1[nH]cnc1C(N)=O [Dacarbazine] (drug 10000 nM) | 6.57 | -8.78 | -10 | 0.27 | 6.76 | -17 | 10.7 | -11.3 | -2.8 | -13 | -13 | -17.3 | -7.07 | -1.82 | -0.257
CO[C@H]1/C=C\C=C(/C)C(=O)NC2=CC(=O)C(NCCN(C)C)=C(C[C@@H](C)C[C@H](OC)[C@H](O)[C@@H](C)/C=C(\C)[C@@H]1OC(N)=O)C2=O [Alvespimycin (17-DMAG)] (drug 1000 nM) | 44.1 | 49.9 | 37.1 | 32.9 | 68.2 | 65 | 47.8 | 30.2 | 32.7 | 47 | 49 | 76.7 | 78.3 | 49.2 | 35
CC1(C)CCC(c2ccc(Cl)cc2)=C(CN2CCN(c3ccc(C(=O)NS(=O)(=O)c4ccc(N[C@H](CCN5CCOCC5)CSc5ccccc5)c(S(=O)(=O)C(F)(F)F)c4)cc3)CC2)C1 [Navitoclax (ABT-263)] (drug 10000 nM) | -6.95 | 0.832 | 3.74 | -1.41 | 32.7 | 27 | 14.2 | 5 | -9.03 | -6.23 | 6.74 | 47.7 | 33.3 | 23.7 | 38.4
CC[C@@]1(O)C(=O)OCc2c1cc1n(c2=O)Cc2cc3ccccc3nc2-1 [Camptothecin] (drug 5000 nM) | 57.9 | 61 | 28.7 | 54.1 | -15.3 | 85.5 | 87.2 | 49.1 | 52.9 | 41.1 | -9.54 | 0.861 | 4.82 | 35.6 | 49.6
CC/C(=C(\c1ccccc1)c1ccc(OCCN(C)C)cc1)c1ccccc1 [Tamoxifen citrate] (drug 10000 nM) | 26.3 | 4.58 | 10.2 | 17.8 | 93.8 | 10.6 | 78.6 | 28.6 | 9.17 | 38.8 | 35.7 | 91.4 | 95.3 | 50 | 15.1
O=C1CN2Cc3c(ccc(Cl)c3Cl)N=C2N1 [Anagrelide] (drug 10000 nM) | -5.88 | -25.6 | -12.9 | 0.528 | 3.44 | -21.2 | 2.74 | -9.28 | -12.6 | -4.05 | -9.3 | -22.2 | 2.18 | -2.05 | 8.7
